Data reported in ChEMBL document CHEMBL1201862, “PubChem BioAssay data set” (2004).
Calls of active or inactive are those of the source.

What was measured:
[1] = molecular target: T1, Polyadenylate-binding protein 1 (Homo sapiens, UniProt P11940); test: PABP1 MLLE–PAM2 binding inhibitor potency, dose response, biochemical, fluorescence polarization, FITC-PAM2 peptide (AID 602259); type: functional; conditions: read-out: IC50_Mean
INS1 = test: beta cell apoptosis inhibitors, cytokine rescue, dose response, luminescence, retest (AID 449756); type: functional, cell-based; conditions: Rattus norvegicus;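 note: cell death triggered by IL-1 beta plus TNF-alpha plus IFN-gamma mixture; protective hits raise ATP signal compared with cytokine alone wells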
Large T antigen = Large T antigen (Simian virus 40, UniProt P03070); type: functional, Betapolyomavirus macacae;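 note: Confirmatory-stage PubChem screen for compounds that inhibit SV40 T antigen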
Chain of Large T antigen (P03070 whole entry): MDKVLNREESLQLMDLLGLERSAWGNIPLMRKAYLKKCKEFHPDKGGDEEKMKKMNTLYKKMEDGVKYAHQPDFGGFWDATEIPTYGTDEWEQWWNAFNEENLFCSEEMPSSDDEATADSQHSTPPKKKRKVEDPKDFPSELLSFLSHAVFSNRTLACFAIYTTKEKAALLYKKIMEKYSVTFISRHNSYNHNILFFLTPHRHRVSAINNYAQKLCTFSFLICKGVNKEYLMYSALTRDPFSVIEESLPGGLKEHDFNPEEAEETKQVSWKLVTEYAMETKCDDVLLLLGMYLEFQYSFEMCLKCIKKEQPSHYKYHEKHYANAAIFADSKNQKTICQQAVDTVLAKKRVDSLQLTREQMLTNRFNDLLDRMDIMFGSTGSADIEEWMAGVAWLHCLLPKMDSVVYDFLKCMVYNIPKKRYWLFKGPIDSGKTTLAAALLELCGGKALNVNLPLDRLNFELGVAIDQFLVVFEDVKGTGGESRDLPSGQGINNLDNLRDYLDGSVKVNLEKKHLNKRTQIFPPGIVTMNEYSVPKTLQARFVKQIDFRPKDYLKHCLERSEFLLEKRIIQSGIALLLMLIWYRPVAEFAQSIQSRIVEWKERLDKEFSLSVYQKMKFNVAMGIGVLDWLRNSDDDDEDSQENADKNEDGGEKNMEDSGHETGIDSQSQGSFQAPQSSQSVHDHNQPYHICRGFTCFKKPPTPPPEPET

[2] = molecular target: T1, Polyadenylate-binding protein 1; test: PABP1 MLLE–PAM2 interaction inhibitors, dose response, miRNA deadenylation inhibitor project, biochemical, fluorescence polarization, Cy5-PAM2 peptide, secondary (AID 602260); type: functional; conditions: read-out: IC50_Mean
[3] = inhibitors of HIV Env-driven cell fusion, dose response, cherry-pick (AID 652057); type: functional, cell-based
[4] = inhibitors of intracellular T. cruzi replication, confirmation, NIH3T3 host cells, beta-gal luminescence (AID 2044); type: functional, cell-based;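 note: intracellular parasites grown in NIH/3T3 mouse fibroblasts as host cells; luminescent beta-galactosidase reporter signal from transgenic T. cruzi replicating inside host cells; inhibitors lower the luminescence signal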
[5] = molecular target: FAD-linked sulfhydryl oxidase ALR (Homo sapiens, UniProt P55789); test: inhibitors of human ALR sulfhydryl oxidase, dose response, biochemical, H2O2 detection, luminescence, cherry-pick (AID 493248)
Chain of FAD-linked sulfhydryl oxidase ALR (P55789 whole entry): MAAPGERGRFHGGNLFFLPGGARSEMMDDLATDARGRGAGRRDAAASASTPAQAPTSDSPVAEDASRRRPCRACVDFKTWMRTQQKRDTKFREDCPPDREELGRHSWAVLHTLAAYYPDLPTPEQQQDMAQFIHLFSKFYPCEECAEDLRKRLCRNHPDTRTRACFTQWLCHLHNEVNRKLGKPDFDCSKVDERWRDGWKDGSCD

[6] = cytotoxicity toward NIH3T3 fibroblasts, dose response, counter-screen, cell-based, ATP luminescence, mouse fibroblasts (AID 2010); type: functional;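 note: cells exposed to compound for about 90 hours before reading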
cells = type: functional
[7] = molecular target: T2, Ubiquitin-conjugating enzyme E2 N (Homo sapiens, UniProt P61088); type: functional;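 note: Dose-response confirmation in a TR-FRET assay detecting UBC13-driven polyubiquitin chain formation, inhibition measured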
T2 sequence (P61088 whole entry): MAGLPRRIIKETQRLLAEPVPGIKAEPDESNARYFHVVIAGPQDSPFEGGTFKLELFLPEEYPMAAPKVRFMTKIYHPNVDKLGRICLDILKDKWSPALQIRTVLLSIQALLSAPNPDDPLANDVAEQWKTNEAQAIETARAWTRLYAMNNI

T1 sequence (P11940 whole entry): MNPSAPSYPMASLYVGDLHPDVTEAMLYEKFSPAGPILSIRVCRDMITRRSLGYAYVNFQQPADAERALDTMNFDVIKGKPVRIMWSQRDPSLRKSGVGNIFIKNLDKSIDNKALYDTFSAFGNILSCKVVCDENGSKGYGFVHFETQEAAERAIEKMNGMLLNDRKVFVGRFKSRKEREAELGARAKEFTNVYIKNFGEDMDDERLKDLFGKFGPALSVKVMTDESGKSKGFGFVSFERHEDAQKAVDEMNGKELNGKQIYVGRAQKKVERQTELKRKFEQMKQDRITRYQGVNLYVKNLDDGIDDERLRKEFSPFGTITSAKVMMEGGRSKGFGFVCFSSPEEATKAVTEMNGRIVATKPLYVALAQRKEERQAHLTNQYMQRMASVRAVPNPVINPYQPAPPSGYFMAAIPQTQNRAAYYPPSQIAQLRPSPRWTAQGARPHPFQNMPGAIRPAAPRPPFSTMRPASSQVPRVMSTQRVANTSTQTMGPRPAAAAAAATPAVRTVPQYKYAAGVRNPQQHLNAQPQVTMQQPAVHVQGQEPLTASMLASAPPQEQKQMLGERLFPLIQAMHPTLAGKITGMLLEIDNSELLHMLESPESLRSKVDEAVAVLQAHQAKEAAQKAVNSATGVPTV

With `CCc1cc(SC#N)cc(C)c1NC(=O)CCl` the IC50 [1] was > 66 µM (inactive), the AC50 (INS1) was 5.76 µM (active) and the IC50 (Large T antigen) was > 100 µM (active). For the same molecule, the IC50 [2] was > 66 µM (inactive).
In the case of `COc1ccc([Si](C)(C)[C@H]2[C@H](CCO)O[C@@]3(C(=O)N(Cc4cccc(N5CCOC5=O)c4)c4ccccc43)[C@@H]2C)cc1`, the AC50 [3] is reported as 17.3 µM (active).
For `O=C(NCC(c1cccnc1)N1CCN(c2ccc(F)cc2)CC1)c1ccco1` (stereo unspecified), the EC50 [4] was 0.46 µM (active), the AC50 [5] was 4.66 µM (active) and the EC50 [6] was > 60 µM (inconclusive).
With `O=C(CN1CCOCC1)N/N=C/c1ccc(-c2ccc(Br)cc2)o1` the IC50 (cells) was > 50 µM (active).
In the case of `COc1cc(/C=N/N(C)C)ccc1OC(=O)c1cccs1`, the IC50 (cells) is reported as 24.2 µM (active).
For `O=C(Nc1ccccc1N1CCCC1)c1ccc(N2CCCC2=O)cc1`, the AC50 [5] was 1.55 µM (active).
In the case of `O=C(NCc1ccccn1)c1ccc2c(c1)N(Cc1ccccc1)CCS2`, the AC50 [5] is reported as 0.511 µM (active).
In the case of `COc1ccc(C(=O)NN=C(C)/C=C(\O)c2ccccc2)cc1`, the IC50 (cells) is reported as > 50 µM (active).
For `Clc1ccc2nc(N3CCCCC3)[nH]c2c1`, the AC50 [5] was 4.04 µM (active).
For `Cc1cc(C)cc(OC(=O)CCN2C(=O)c3ccccc3C2=O)c1`, the IC50 (cells) was > 50 µM (active).
In the case of `Cc1nnc(N/N=C/c2ccc(Br)cc2)n1N`, the IC50 (cells) is reported as 2.75 µM (active).
For `C=CCn1c(SCc2ccc(Cl)cc2)nc2cc(C(=O)N3CCC(C(N)=O)CC3)ccc2c1=O`, the IC50 [7] was > 20 µM (inactive).
With `CC1CN(S(=O)(=O)c2cccc(C(=O)N(Cc3nnc(-c4ccccc4Cl)o3)C3CC3)c2)CC(C)O1` (stereo unspecified) the IC50 [7] was > 20 µM (inactive).
With `COc1cc(/C=C2\NC(=S)N(C)C2=O)ccc1O` the IC50 (Large T antigen) was 3.22 µM (active).
In the case of `CCN(CC)c1ccc(NC(=O)c2cccnc2)cc1`, the AC50 [5] is reported as 0.327 µM (active) and the IC50 (Large T antigen) is reported as 13.5 µM (active).
